Reference: US7803801B2, “Aminopyridine compounds having Syk inhibitory activity” (Japan Tobacco, Inc., priority 2005, dated 2010)
Counter-ions that a name gives are not always drawn. Like-named read-outs stand apart in the source and are kept apart here.

Tests used:
[1] = molecular target: GST-Syk Full Protein (human) (Homo sapiens, UniProt P43405); assay: Syk kinase inhibition test (HTRF method); type: biochemical
In short: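 Human GST-Syk full-length (6.4 nM) phosphorylated biotin-EDPDYEWPSA-NH2 (250 nM) with 100 μM ATP in HEPES pH 7.0/MgCl2 buffer, 2% DMSO, 30 min at room temperature. EDTA stop, then HTRF detection (streptavidin-XL665, Eu anti-phosphotyrosine) after 1 h; 665/620 ratio read.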

[2] = system: cultured human mast cells; assay: Degranulation inhibition test using cultured human mast cells (IgE cross-linking, β-Hexosaminidase release); type: cell-based; settings: read-out: human degranulation ave. IC50
In short: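 CD34+ cord-blood cells cultured ≥8 weeks with SCF/IL-6/IL-3; FcεRI primed 5 days with rhIL-4 (1 ng/mL) and hIgE (0.5 μg/mL). Compound (0.1% DMSO) preincubated 10 min at 37 °C, then anti-IgE (final 10 μg/mL) 30 min; released β-hexosaminidase read at 405 nm versus total lysate, IC50 (M).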

[3] = HTRF, 100 μM ATP, 30 min room temperature, average, read-out: sykHTRF ave IC50
[4] = Mast cell, cultured human mast cells, anti-hIgE stimulation, β-Hexosaminidase index, average
[5] = Tables 1-x, compounds A, read-out: sykHTRF ave IC50
[6] = Mast cell, Tables 1-x, compounds A, cultured human mast cells
[7] = Tables 2-x, thiophene compounds B, read-out: sykHTRK ave IC50
[8] = Mast cell, Tables 2-x, thiophene compounds B, cultured human mast cells

| SMILES | IC50 [1, 3] | IC50 [2, 4] | IC50 [1, 5] | IC50 [2, 6] | other results |
| --- | --- | --- | --- | --- | --- |
| Cc1ccnc(Nc2cccc(-c3cnc([C@H]4CC[C@H](C(=O)N5CCC(O)CC5)CC4)s3)n2)c1 [Compound A-8, (4-hydroxypiperidin-1-yl)-(trans-4-{5-[6-(4-methylpyridin-2-ylamino)pyridin-2-yl]thiazol-2-yl}cyclohexyl)methanone] | 0.1 to 1 µM | 0.1 to 1 µM |  |  |  |
| CC(=O)N1CCN(c2ncc(-c3cccc(Nc4cc(Cl)ccn4)n3)s2)CC1 [Compound A-443, 1-(4-{5-[6-(4-chloropyridin-2-ylamino)pyridin-2-yl]thiazol-2-yl}piperazin-1-yl)ethanone] |  |  | < 0.1 µM | 0.1 to 1 µM |  |
| Cc1ccnc(Nc2cccc(-c3cnc([C@H]4CC[C@H](C(=O)NC5(CO)CCCC5)CC4)s3)n2)c1 [Compound A-310] | 0.1 to 1 µM | > 1 µM |  |  |  |
| CC(=O)c1ccc(-c2cccc(Nc3cc(C4(C)OCCO4)ccn3)n2)s1 [Compound B-78] |  |  |  |  | IC50 [1, 7]: 0.1 to 1 µM; IC50 [2, 8]: 0.1 to 1 µM |
| Cc1ccnc(Nc2cccc(-c3sccc3C)n2)c1 [Compound B-5] |  |  |  |  | IC50 [1, 7]: 0.1 to 1 µM; IC50 [2, 8]: > 1 µM |
| Cc1ccnc(Nc2cccc(-c3cnc([C@H]4CC[C@H](CN5C[C@@H](O)[C@@H](O)C5)CC4)s3)n2)c1 [Compound A-314, (3R,4S)-1-(trans-4-{5-[6-(4-methylpyridin-2-ylamino)pyridin-2-yl]thiazol-2-yl}cyclohexylmethyl)pyrrolidin-3,4-diol] | < 0.1 µM | > 1 µM |  |  |  |
| Cc1ccnc(Nc2cccc(-c3cnc([C@H](C)NC(=O)c4ccccc4)s3)n2)c1 [Compound A-348] | 0.1 to 1 µM | > 1 µM |  |  |  |
| CC(=O)N[C@@H](Cc1ccc(NC(=O)OCc2ccccc2)cc1)c1ncc(-c2cccc(Nc3cc(C)ccn3)n2)s1 [Compound A-178] | > 1 µM | > 1 µM |  |  |  |
| CNC(=O)CN1C(=O)OC[C@H]1c1ncc(-c2cccc(Nc3cc(C)ccn3)n2)s1 [Compound A-402] |  |  | > 1 µM | > 1 µM |  |
| O[C@@H]1CCN(c2ncc(-c3cccc(Nc4cc(Cl)ccn4)n3)s2)C1 [Compound A-539, (R)-1-{5-[6-(4-chloropyridin-2-ylamino)pyridin-2-yl]thiazol-2-yl}pyrrolidin-3-ol] |  |  | < 0.1 µM | < 0.1 µM |  |
| Cc1ccnc(Nc2cccc(-c3cnc(C4CCCN(S(C)(=O)=O)C4)s3)n2)c1 (stereo not shown) [Compound A-392] |  |  | 0.1 to 1 µM | 0.1 to 1 µM |  |
| Cc1ccnc(Nc2cccc(-c3cnc(CCCCCN)s3)n2)c1 [Compound A-128, 5-{5-[6-(4-methylpyridin-2-ylamino)pyridin-2-yl]thiazol-2-yl}pentylamine] | < 0.1 µM | > 1 µM |  |  |  |
| Cc1ccnc(Nc2cccc(-c3cnc(N(C)[C@H]4CN[C@H](C(=O)O)C4)s3)n2)c1 [Compound A-579, (2S,4R)-4-(N-methyl-N-{5-[6-(4-methylpyridin-2-ylamino)pyridin-2-yl]thiazol-2-yl}amino)pyrrolidine-2-carboxylic acid] |  |  | < 0.1 µM | > 1 µM |  |
| Cc1ccnc(Nc2cccc(-c3cnc([C@H]4CC[C@H](C(=O)NCCc5ccccn5)CC4)s3)n2)c1 [Compound A-279] | 0.1 to 1 µM | 0.1 to 1 µM |  |  |  |
| O=C(O)[C@@H]1CCCN(c2ncc(-c3cccc(Nc4cc(Cl)ccn4)n3)s2)C1 [Compound A-546, (R)-1-{5-[6-(4-chloropyridin-2-ylamino)pyridin-2-yl]thiazol-2-yl}piperidine-3-carboxylic acid] |  |  | < 0.1 µM | 0.1 to 1 µM |  |
| COc1ccnc(Nc2cccc(-c3cnc(N4CC[C@@H](O)C4)s3)n2)c1 [Compound A-538, (R)-1-{5-[6-(4-methoxypyridin-2-ylamino)pyridin-2-yl]thiazol-2-yl}pyrrolidin-3-ol] |  |  | < 0.1 µM | 0.1 to 1 µM |  |
| Cc1ccnc(Nc2cccc(-c3cnc(CN4CCNC(=O)C4)s3)n2)c1 [Compound A-351, potassium carbonate 4-{5-[6-(4-methylpyridin-2-ylamino)pyridin-2-yl]thiazol-2-ylmethyl}piperazin-2-one] | < 0.1 µM |  |  |  | IC50 [2]: 0.1 to 1 µM |
| Cc1ccnc(Nc2cccc(-c3cnc(N4CCOCC4)s3)n2)c1 [Compound A-417, N-(4-methylpyridin-2-yl)-N-[6-(2-morpholin-4-ylthiazol-5-yl)pyridin-2-yl]amine] |  |  | < 0.1 µM | 0.1 to 1 µM |  |
| Cc1ccnc(Nc2cccc(-c3ccc(C(C)O)s3)n2)c1 (stereo not shown) [Compound B-3, 1-{5-[6-(4-methylpyridin-2-ylamino)pyridin-2-yl]thiophen-2-yl}ethanol] |  |  |  |  | IC50 [1, 7]: 0.1 to 1 µM; IC50 [2, 8]: 0.1 to 1 µM |
| CC(=O)Nc1ccc(CCc2ncc(-c3cccc(Nc4cc(C)ccn4)n3)s2)cc1 [Compound A-220] | 0.1 to 1 µM | 0.1 to 1 µM |  |  |  |
| CC(=O)c1sc(-c2cccc(Nc3cc(C)ccn3)n2)cc1C [Compound B-40] |  |  |  |  | IC50 [1, 7]: 0.1 to 1 µM; IC50 [2, 8]: > 1 µM |

| SMILES | IC50 [1, 3] | IC50 [2, 4] | IC50 [1, 5] | IC50 [2, 6] | other results |
| --- | --- | --- | --- | --- | --- |
| CNC(=O)N1CCN(c2ncc(-c3cccc(Nc4cc(C)ccn4)n3)s2)CC1 [Compound A-427, N-methyl-4-{5-[6-(4-methylpyridin-2-ylamino)pyridin-2-yl]thiazol-2-yl}piperazine-1-carboxamide] | < 0.1 µM | < 0.1 µM |  |  |  |
| COC(=O)CCNC(=O)c1ccc(-c2cccc(Nc3cc(C)ccn3)n2)s1 [Compound B-97] |  |  |  |  | IC50 [1, 7]: 0.1 to 1 µM; IC50 [2, 8]: > 1 µM |
| COc1ccc(NCc2ncc(-c3cccc(Nc4cc(C)ccn4)n3)s2)cc1 [Compound A-214] | 0.1 to 1 µM | > 1 µM |  |  |  |
| NC(=O)[C@@H]1CCCN1c1ncc(-c2cccc(Nc3cc(Cl)ccn3)n2)s1 [Compound A-542, (S)-1-{5-[6-(4-chloropyridin-2-ylamino)pyridin-2-yl]thiazol-2-yl}pyrrolidine-2-carboxamide] |  |  | < 0.1 µM | < 0.1 µM |  |
| Cc1ccnc(Nc2cccc(-c3cnc(C4CCC(=O)CC4)s3)n2)c1 [Compound A-60] | 0.1 to 1 µM | 0.1 to 1 µM |  |  |  |
| CC(=O)N1CCC(N(CCNS(C)(=O)=O)c2ncc(-c3cccc(Nc4cc(C)ccn4)n3)s2)CC1 [Compound A-524, N-[2-(N′-(1-acetylpiperidin-4-yl)-N′-{5-[6-(4-methylpyridin-2-ylamino)pyridin-2-yl]thiazol-2-yl}amino)ethyl]methanesulfonamide] |  |  | < 0.1 µM | > 1 µM |  |
| Cc1ccnc(Nc2cccc(-c3cnc(N4CCC(C(=O)O)C4)s3)n2)c1 (stereo not shown) [Compound A-576, 1-{5-[6-(4-methylpyridin-2-ylamino)pyridin-2-yl]thiazol-2-yl}pyrrolidine-3-carboxylic acid dihydrochloride] |  |  | < 0.1 µM | > 1 µM |  |
| Cc1ccnc(Nc2cccc(-c3cnc(C4CCCC(C(=O)N5CCC(O)CC5)C4)s3)n2)c1 (stereo not shown) [Compound A-271] | 0.1 to 1 µM |  |  |  | IC50 ([2]; cultured human mast cells, anti-hIgE stimulation, β-Hexosaminidase index, average): 0.1 to 1 µM |
| C[C@H](O)c1ncc(-c2cccc(Nc3cc(CCO)ccn3)n2)s1 [Compound A-321, (S)-1-(5-{6-[4-(2-hydroxyethyl)pyridin-2-ylamino]pyridin-2-yl}thiazol-2-yl)ethanol] | < 0.1 µM | < 0.1 µM |  |  |  |
| OCCN(CCO)c1ncc(-c2cccc(Nc3cc(Cl)ccn3)n2)s1 [Compound A-545, 2-[N-{5-[6-(4-chloropyridin-2-ylamino)pyridin-2-yl]thiazol-2-yl}-N-(2-hydroxyethyl)amino]ethanol] |  |  | < 0.1 µM | < 0.1 µM |  |
| Cc1ccnc(Nc2cccc(-c3cnc(C4CCC(O)CC4)s3)n2)c1 (stereo not shown) [Compound A-73, 4-{5-[6-(4-methylpyridin-2-ylamino)pyridin-2-yl]thiazol-2-yl}cyclohexanol] | < 0.1 µM | 0.1 to 1 µM |  |  |  |
| COc1cc(Nc2cccc(-c3sc(NC(C)=O)nc3C)n2)ncn1 [Compound A-22] | 0.1 to 1 µM | > 1 µM |  |  |  |
| CCOC(=O)CC(C)(C)NC(=O)c1ncc(-c2cccc(Nc3cc(C)ccn3)n2)s1 [Compound A-155] | 0.1 to 1 µM | > 1 µM |  |  |  |
| Cc1ccnc(Nc2cccc(-c3cnc([C@H](C)N(C)C(=O)OC(C)(C)C)s3)n2)c1 [Compound A-50] | 0.1 to 1 µM | > 1 µM |  |  |  |
| Cc1ccnc(Nc2cccc(-c3cnc(N4CCN(CC(=O)O)C(=O)C4)s3)n2)c1 [Compound A-464, (4-{5-[6-(4-methylpyridin-2-ylamino)pyridin-2-yl]thiazol-2-yl}-2-oxopiperazin-1-yl)acetic acid dihydrochloride] |  |  | < 0.1 µM | > 1 µM |  |
| CC(=O)N1CCC(N(C)c2ncc(-c3cccc(Nc4cc(C)ccn4)n3)s2)CC1 [Compound A-458, 1-[4-(N-methyl-N-{5-[6-(4-methylpyridin-2-ylamino)pyridin-2-yl]thiazol-2-yl}amino)piperidin-1-yl]ethanone] |  |  | < 0.1 µM | 0.1 to 1 µM |  |
| Cc1ccnc(Nc2cccc(-c3ccc(CNCCC(=O)O)s3)n2)c1 [Compound B-103] |  |  |  |  | IC50 [1, 7]: 0.1 to 1 µM; IC50 [2, 8]: > 1 µM |
| O=C1CC[C@@H](c2ncc(-c3cccc(Nc4cc(OCCO)ccn4)n3)s2)N1 [Compound A-343] | 0.1 to 1 µM | 0.1 to 1 µM |  |  |  |
| Cc1ccnc(Nc2cccc(-c3cnc(CCc4ccc(C(=O)O)cc4)s3)n2)c1 [Compound A-151, 4-(2-{5-[6-(4-methylpyridin-2-ylamino)pyridin-2-yl]thiazol-2-yl}ethyl)benzoic acid] | < 0.1 µM | 0.1 to 1 µM |  |  |  |
| CC(=NO)c1cc(C)c(-c2cccc(Nc3cc(C)ccn3)n2)s1 [Compound B-7] |  |  |  |  | IC50 [1, 7]: 0.1 to 1 µM; IC50 [2, 8]: > 1 µM |
